Where a name gives a salt, the structure may show the parent alone.
What was measured:
S1P3 receptor = S1P3 receptor (Homo sapiens, UniProt Q99500); assay: 35S-GTPγS binding, membranes from CHO cells expressing S1P3; assay type: biochemical; details: CHO cell membranes expressing S1P3
In short: (§1)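 Membranes (1–10 μg) from CHO cells expressing the receptor were incubated with compound in 20 mM HEPES pH 7.4, 10 mM MgCl2, 140 mM NaCl, 1.7 μM GDP, saponin and 0.2% BSA. [35S]GTPγS (added at 1.5 nM) was then bound for 60 min at 30 °C. Membrane-bound radioactivity, averaged over triplicates, is expressed relative to S1P activation (n=2).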

S1P1 receptor = S1P1 receptor (Homo sapiens, UniProt P21453); assay: 35S-GTPγS binding, membranes from CHO cells expressing S1P1; assay type: biochemical; details: CHO cell membranes expressing S1P1
Sequence of S1P1 receptor (P21453 whole entry): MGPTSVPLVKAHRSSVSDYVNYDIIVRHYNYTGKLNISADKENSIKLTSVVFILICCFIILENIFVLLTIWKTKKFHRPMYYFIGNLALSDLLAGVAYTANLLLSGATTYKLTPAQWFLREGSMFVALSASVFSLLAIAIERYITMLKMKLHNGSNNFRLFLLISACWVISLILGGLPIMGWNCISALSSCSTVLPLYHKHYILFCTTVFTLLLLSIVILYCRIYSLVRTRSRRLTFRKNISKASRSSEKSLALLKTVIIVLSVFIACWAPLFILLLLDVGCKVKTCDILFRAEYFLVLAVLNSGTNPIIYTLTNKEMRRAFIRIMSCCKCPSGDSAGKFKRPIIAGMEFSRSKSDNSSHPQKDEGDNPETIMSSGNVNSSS
In short: as §1

Sequence of S1P3 receptor (Q99500 whole entry): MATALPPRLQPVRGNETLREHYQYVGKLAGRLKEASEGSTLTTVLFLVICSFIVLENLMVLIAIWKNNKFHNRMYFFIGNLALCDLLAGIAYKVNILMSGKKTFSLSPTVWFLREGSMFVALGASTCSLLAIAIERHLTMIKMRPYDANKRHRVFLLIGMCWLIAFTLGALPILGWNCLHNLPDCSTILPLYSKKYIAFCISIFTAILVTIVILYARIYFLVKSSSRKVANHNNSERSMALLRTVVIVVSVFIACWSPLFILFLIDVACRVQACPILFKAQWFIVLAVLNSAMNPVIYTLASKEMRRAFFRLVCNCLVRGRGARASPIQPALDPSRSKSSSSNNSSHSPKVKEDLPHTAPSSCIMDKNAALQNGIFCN

SMILES	EC50 (S1P3 receptor) [µM]	EC50 (S1P1 receptor) [µM]
Fc1ccc(F)c(-c2noc(-c3nnn(-c4ccccc4F)c3CN3CCCC3)n2)c1 [Example 92, 3-(2,5-difluorophenyl)-5-[1-(2-fluorophenyl)-5-(pyrrolidin-1-ylmethyl)-1H-1,2,3-triazol-4-yl]-1,2,4-oxadiazole]	> 20	0.092
COCc1c(-c2nc(-c3ccc4[nH]ncc4c3)no2)nnn1-c1ccccc1F [Example 87, 5-{5-[1-(2-fluorophenyl)-5-(methoxymethyl)-1H-1,2,3-triazol-4-yl]-1,2,4-oxadiazol-3-yl}-1H-indazole]	> 20	0.098
COCCNCc1ccc(-c2noc(-c3nnn(-c4ccccc4F)c3-c3ccncc3)n2)cc1 [Example 114, N-(4-{5-[1-(2-fluorophenyl)-5-pyridin-4-yl-1H-1,2,3-triazol-4-yl]-1,2,4-oxadiazol-3-yl}benzyl)-2-methoxyethanamine]	6.68	0.05
Fc1ccc(F)c(-c2noc(-c3nnn(-c4ccccc4F)c3-c3ccccc3)n2)c1 [Example 12, 3-(2,5-Difluorophenyl)-5-[1-(2-fluorophenyl)-5-phenyl-1H-1,2,3-triazole-4-yl]-1,2,4-oxadiazole]	14	0.007
Fc1ccc(F)c(-c2noc(-c3nnn(-c4ccccc4F)c3C3CC3)n2)c1 [Example 69, 5-[5-cyclopropyl-1-(2-fluorophenyl)-1H-1,2,3-triazol-4-yl]-3-(2,5-difluorophenyl)-1,2,4-oxadiazole]	> 20	0.116
Fc1ccccc1-n1nnc(-c2nc(-c3ccncc3)no2)c1-c1ccncc1 [Example 41, 4-[1-(2-fluorophenyl)-4-(3-pyridin-4-yl-1,2,4-oxadiazol-5-yl)-1H-1,2,3-triazol-5-yl]pyridine]	> 20	0.16
CCc1c(-c2nc(-c3ccccc3F)no2)nnn1-c1ccccc1F [Example 6, 5-[5-Ethyl-1-(2-fluorophenyl)-1H-1,2,3-triazole-4-yl]-3-(2-fluorophenyl)-1,2,4-oxadiazole]	> 30	0.561
NCc1ccc(-c2noc(-c3nnn(-c4ccccc4F)c3-c3ccncc3)n2)cc1 [Example 80, 1-(4-{5-[1-(2-fluorophenyl)-5-pyridin-4-yl-1H-1,2,3-triazol-4-yl]-1,2,4-oxadiazol-3-yl}phenyl)methanamine hydrochloride]	2.27	0.038
Fc1ccccc1-c1noc(-c2nnn(-c3ccccc3F)c2-c2ccccn2)n1 [Example 27, 2-{1-(2-Fluorophenyl)-4-[3-(2-fluorophenyl)-1,2,4-oxadiazole-5-yl]-1H-1,2,3-triazole-5-yl}pyridine]	2.89	0.188
Fc1ccc(F)c(-c2noc(-c3nnn(-c4ccccc4F)c3-c3ccncc3)n2)c1 [Example 31, 4-[4-[3-(2,5-Difluorophenyl)-1,2,4-oxadiazole-5-yl]-1-(2-fluorophenyl)-1H-1,2,3-triazole-5-yl]pyridine]	1.78	0.007
CNCc1ccc(-c2noc(-c3nnn(-c4ccccc4F)c3-c3ccncc3)n2)cc1 [Example 129, 1-(4-{5-[1-(2-fluorophenyl)-5-pyridin-4-yl-1H-1,2,3-triazol-4-yl]-1,2,4-oxadiazol-3-yl}phenyl)-N-methylmethanamine]	4.56	0.01
Fc1ccccc1-n1nnc(-c2nc(-c3ccccc3)no2)c1-c1ccccc1 [Example 14, 5-[1-(2-Fluorophenyl)-5-phenyl-1H-1,2,3-triazole-4-yl]-3-phenyl-1,2,4-oxadiazole]	0.399	0.038
CCc1c(-c2nc(-c3ccccc3)no2)nnn1-c1ccccc1F [Example 5, 5-[5-Ethyl-1-(2-fluorophenyl)-1H-1,2,3-triazole-4-yl]-3-phenyl-1,2,4-oxadiazole]	> 30	0.862

Source: US8202856B2 (Merck Serono SA, priority 2007, dated 2012)
